Source: US9050341B2, “Methods of treating drug resistant and other tumors by administering 6,7-dialkoxy quinazoline derivatives” (NATCO PHARMA LIMITED, priority 2009, dated 2015)

Experiments:
Test in all cases: KinomeScan kinase profiling
Type in all cases: binding
BRSK2 = biological target: T1, BRSK2 (Homo sapiens, UniProt Q8IWQ3)
T1 construct: purchased Ambit Biosciences Corp (KinomeScan); host or cells: E. coli host derived from the BL21 strain, T7 phage
How it was run: (§1)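 Kinases were expressed as T7 phage fusions in a BL21-derived E. coli host and the cleared lysates were used. Ligand beads were blocked with biotin and buffer (1% BSA, 0.05% Tween 20, 1 mM DTT). Compounds came from 40× DMSO stocks, and phage in the eluates was titred by qPCR.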

CHEK2 = biological target: T2, CHEK2 (Homo sapiens, UniProt O96017)
T2 construct: host or cells: T7 phage in E. coli (BL21-derived)
How it was run: as §1

EGFR (E746-A750del) = biological target: T3, EGFR (E746-A750del) (Homo sapiens, UniProt P00533, DEL746-750)
T3 construct: purchased Ambit Biosciences Corp (KinomeScan); host or cells: T7 phage in E. coli host derived from BL21
How it was run: as §1

EGFR = biological target: T4, EGFR (Homo sapiens, UniProt P00533)
T4 construct: purchased Ambit Biosciences Corp (KinomeScan); host or cells: T7 phage in E. coli host derived from BL21
How it was run: as §1

EGFR (L858R) = biological target: T5, EGFR (L858R) (Homo sapiens, UniProt P00533, L858R)
T5 construct: host or cells: E. coli host derived from BL21, T7 phage lysate
How it was run: as §1

FGR = biological target: T6, FGR (Homo sapiens, UniProt P09769)
T6 construct: host or cells: E. coli host derived from BL21, infected with T7 phage
How it was run: as §1

FLT3 (D835H) = biological target: T7, FLT3 (D835H) (Homo sapiens, UniProt P36888, D835H)
T7 construct: host or cells: E. coli host derived from BL21, infected with T7 phage
How it was run: as §1

GSK3B = biological target: T8, GSK3B (Homo sapiens, UniProt P49841)
T8 construct: host or cells: E. coli host derived from BL21, infected with T7 phage
T8 sequence (P49841 whole entry): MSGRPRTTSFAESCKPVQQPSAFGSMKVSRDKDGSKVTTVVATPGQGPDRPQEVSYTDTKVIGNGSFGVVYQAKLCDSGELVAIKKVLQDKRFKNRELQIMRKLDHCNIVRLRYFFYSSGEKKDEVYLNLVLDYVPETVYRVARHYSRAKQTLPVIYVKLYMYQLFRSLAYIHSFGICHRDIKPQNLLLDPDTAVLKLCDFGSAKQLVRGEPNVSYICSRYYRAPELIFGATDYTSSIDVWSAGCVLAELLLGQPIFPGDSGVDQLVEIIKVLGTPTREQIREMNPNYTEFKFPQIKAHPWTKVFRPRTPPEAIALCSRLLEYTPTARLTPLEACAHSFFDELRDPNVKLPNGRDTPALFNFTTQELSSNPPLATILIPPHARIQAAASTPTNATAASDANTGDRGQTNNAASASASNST
How it was run: as §1

INSR = biological target: T9, INSR (Homo sapiens, UniProt P06213)
T9 construct: host or cells: T7 phage in E. coli host derived from BL21
T9 sequence (P06213 28-1382): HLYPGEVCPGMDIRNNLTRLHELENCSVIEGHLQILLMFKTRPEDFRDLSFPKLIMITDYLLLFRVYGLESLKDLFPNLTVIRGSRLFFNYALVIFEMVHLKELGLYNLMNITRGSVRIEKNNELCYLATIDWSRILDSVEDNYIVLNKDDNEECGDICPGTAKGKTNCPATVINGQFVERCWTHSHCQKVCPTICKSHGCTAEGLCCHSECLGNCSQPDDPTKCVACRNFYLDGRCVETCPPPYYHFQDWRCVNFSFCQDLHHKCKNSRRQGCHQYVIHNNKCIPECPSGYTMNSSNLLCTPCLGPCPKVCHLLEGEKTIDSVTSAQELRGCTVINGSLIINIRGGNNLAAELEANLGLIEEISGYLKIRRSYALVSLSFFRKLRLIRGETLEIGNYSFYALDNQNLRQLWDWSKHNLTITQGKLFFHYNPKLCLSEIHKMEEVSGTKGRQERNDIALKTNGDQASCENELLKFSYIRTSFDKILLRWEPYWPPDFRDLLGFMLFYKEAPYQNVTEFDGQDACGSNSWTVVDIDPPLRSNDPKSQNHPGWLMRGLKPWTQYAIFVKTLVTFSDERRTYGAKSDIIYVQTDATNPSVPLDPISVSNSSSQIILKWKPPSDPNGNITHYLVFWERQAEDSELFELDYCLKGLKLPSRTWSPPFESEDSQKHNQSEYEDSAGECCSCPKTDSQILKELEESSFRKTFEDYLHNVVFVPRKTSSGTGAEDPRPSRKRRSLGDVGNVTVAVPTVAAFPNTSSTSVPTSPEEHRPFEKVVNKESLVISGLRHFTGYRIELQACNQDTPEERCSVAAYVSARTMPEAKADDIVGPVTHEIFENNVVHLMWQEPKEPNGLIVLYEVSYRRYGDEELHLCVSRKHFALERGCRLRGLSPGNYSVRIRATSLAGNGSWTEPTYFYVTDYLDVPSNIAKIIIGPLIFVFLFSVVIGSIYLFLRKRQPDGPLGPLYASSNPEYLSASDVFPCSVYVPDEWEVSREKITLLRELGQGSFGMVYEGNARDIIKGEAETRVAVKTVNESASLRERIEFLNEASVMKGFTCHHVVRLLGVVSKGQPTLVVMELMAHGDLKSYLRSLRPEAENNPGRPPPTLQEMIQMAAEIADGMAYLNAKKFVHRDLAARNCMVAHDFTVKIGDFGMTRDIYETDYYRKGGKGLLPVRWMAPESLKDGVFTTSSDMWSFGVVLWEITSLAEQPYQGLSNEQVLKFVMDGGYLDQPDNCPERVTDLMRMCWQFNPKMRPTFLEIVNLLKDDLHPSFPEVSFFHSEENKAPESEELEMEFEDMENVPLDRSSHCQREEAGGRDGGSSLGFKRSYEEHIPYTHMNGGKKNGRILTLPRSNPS
How it was run: as §1

ITK = biological target: T10, ITK (Homo sapiens, UniProt Q08881)
T10 construct: host or cells: T7 phage in E. coli host derived from BL21
How it was run: as §1

[1] = biological target: T11, JAK1 (JH1domain-catalytic) (Homo sapiens, UniProt P23458)
T11 construct: JAK1 (JH1domain-catalytic); host or cells: T7 phage in E. coli host derived from BL21
T11 sequence (P23458 875-1153 limits assumed): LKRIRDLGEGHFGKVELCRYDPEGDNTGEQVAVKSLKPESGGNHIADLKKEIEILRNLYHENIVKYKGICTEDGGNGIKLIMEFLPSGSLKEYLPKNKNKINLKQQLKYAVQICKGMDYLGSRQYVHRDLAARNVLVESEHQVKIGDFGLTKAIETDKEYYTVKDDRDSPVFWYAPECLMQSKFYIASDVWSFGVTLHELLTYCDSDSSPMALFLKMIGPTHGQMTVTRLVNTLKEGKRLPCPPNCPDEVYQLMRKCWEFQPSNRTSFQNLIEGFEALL
How it was run: as §1

MARK2 = biological target: T12, MARK2 (Homo sapiens, UniProt Q7KZI7)
T12 construct: host or cells: E. coli derived from BL21, infected with T7 phage
How it was run: as §1

MEK2 = biological target: T13, MEK2 (Homo sapiens, UniProt P36507)
T13 construct: host or cells: E. coli derived from BL21, infected with T7 phage
T13 sequence (P36507 whole entry): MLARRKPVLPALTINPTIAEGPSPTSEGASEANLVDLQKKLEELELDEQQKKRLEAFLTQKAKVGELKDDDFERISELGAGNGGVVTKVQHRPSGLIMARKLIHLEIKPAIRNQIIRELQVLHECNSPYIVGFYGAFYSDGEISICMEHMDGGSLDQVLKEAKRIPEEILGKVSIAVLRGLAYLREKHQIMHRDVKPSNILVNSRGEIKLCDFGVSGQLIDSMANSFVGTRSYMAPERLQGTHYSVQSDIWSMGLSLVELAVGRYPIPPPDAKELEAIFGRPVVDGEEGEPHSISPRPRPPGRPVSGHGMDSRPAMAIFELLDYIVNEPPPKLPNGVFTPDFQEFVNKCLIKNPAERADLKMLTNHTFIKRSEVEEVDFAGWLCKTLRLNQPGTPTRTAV
How it was run: as §1

MELK = biological target: T14, MELK (Homo sapiens, UniProt Q14680)
T14 construct: host or cells: E. coli derived from BL21, infected with T7 phage
How it was run: as §1

MRCKB = biological target: T15, MRCKB (Homo sapiens, UniProt Q9Y5S2)
T15 construct: host or cells: T7 phage in E. coli host derived from BL21
How it was run: as §1

NDR2 = biological target: T16, NDR2 (Homo sapiens, UniProt Q9Y2H1)
T16 construct: host or cells: T7 phage in E. coli host derived from BL21
T16 sequence (Q9Y2H1 whole entry): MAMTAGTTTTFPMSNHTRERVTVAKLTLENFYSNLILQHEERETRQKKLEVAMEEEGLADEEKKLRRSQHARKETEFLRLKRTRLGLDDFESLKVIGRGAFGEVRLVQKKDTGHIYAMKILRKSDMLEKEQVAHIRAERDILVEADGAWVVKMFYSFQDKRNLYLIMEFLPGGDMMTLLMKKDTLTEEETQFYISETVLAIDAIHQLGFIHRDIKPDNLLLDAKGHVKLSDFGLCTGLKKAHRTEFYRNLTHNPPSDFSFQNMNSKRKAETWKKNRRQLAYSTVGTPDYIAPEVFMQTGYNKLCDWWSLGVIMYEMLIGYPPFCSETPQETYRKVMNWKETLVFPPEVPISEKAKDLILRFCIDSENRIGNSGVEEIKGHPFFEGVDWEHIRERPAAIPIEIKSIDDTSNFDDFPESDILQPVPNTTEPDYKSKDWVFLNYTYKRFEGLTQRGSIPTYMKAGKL
How it was run: as §1

NLK = biological target: T17, NLK (Homo sapiens, UniProt Q9UBE8)
T17 construct: host or cells: E. coli host derived from the BL21 strain, infected with T7 phage
T17 sequence (Q9UBE8 whole entry): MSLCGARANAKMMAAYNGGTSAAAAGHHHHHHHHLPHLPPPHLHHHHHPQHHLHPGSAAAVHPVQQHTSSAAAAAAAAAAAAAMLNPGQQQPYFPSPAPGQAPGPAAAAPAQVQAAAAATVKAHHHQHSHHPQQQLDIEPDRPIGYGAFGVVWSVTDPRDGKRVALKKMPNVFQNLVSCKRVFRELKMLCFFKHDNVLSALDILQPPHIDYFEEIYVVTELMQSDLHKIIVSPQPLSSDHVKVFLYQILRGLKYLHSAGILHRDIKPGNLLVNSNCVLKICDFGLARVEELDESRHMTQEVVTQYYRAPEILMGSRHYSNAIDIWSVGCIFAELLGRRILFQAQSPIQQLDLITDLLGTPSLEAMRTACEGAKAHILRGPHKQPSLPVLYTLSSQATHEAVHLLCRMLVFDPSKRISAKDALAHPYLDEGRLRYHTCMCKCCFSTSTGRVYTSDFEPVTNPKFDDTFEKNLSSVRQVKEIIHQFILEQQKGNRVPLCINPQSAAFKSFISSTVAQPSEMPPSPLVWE
How it was run: as §1

PFTK1 = biological target: T18, PFTK1 (Homo sapiens, UniProt O94921)
T18 construct: host or cells: E. coli host derived from the BL21 strain, infected with T7 phage
T18 sequence (O94921 whole entry): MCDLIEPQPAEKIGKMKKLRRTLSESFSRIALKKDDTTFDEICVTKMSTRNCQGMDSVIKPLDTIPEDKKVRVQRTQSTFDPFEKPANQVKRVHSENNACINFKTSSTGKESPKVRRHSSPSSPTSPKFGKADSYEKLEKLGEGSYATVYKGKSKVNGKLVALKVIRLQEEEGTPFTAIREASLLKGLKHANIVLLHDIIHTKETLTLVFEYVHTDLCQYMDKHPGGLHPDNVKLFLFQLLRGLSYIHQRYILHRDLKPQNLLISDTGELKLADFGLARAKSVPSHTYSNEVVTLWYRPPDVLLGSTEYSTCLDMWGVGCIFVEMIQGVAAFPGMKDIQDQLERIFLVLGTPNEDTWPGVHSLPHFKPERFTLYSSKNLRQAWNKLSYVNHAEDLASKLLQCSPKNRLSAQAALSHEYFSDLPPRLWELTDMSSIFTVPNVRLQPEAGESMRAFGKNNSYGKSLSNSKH
How it was run: as §1

PRKCE = biological target: T19, PRKCE (Homo sapiens, UniProt Q02156)
T19 construct: purchased Ambit Biosciences Corp (KinomeScan); host or cells: E. coli host derived from BL21, infected with T7 phage
How it was run: as §1

PRKD1 = biological target: T20, PRKD1 (Homo sapiens, UniProt Q15139)
T20 construct: purchased Ambit Biosciences Corp (KinomeScan); host or cells: E. coli host derived from BL21, infected with T7 phage
How it was run: as §1

RET = biological target: T21, RET (Homo sapiens, UniProt P07949)
T21 construct: host or cells: E. coli host derived from BL21, T7 phage lysate
T21 sequence (P07949 29-1114): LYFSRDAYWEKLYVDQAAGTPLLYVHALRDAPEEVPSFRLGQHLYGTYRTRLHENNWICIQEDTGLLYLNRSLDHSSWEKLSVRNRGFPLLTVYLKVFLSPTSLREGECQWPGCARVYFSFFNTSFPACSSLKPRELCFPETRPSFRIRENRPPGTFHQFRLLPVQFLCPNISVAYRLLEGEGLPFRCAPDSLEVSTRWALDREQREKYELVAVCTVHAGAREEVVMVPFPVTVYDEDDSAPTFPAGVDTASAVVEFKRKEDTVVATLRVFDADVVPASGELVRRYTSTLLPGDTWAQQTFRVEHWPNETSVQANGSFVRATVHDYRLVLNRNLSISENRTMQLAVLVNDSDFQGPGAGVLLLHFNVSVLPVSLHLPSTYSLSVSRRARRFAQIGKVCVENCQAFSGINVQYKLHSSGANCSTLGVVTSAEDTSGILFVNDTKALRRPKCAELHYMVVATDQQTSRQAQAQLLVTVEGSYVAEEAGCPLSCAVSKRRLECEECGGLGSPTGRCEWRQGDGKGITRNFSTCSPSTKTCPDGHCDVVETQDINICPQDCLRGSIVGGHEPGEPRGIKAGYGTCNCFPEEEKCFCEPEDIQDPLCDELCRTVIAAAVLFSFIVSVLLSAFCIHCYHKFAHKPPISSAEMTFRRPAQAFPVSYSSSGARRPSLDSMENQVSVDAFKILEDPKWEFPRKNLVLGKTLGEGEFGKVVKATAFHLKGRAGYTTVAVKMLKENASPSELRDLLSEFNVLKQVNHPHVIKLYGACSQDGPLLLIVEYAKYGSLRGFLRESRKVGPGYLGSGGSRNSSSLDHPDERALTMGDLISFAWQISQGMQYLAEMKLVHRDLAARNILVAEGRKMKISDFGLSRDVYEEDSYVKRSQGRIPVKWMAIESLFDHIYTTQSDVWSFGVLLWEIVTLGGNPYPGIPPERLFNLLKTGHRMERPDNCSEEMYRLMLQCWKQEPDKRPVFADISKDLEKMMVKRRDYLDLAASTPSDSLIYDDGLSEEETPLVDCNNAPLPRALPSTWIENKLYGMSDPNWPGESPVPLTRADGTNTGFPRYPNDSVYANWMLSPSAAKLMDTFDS
How it was run: as §1

SNARK = biological target: T22, SNARK (Homo sapiens, UniProt Q9H093)
T22 construct: host or cells: E. coli host derived from the BL21 strain, T7 phage lysate
How it was run: as §1

p38-gamma = biological target: T23, p38-gamma (Homo sapiens, UniProt P53778)
T23 construct: host or cells: E. coli host derived from the BL21 strain, infected with T7 phage
How it was run: as §1

## C#Cc1cccc(Nc2ncnc3cc(OC)c(OCCCN4CCOCC4)cc23)c1 [NRC-2694, N-(3-ethylnylphenyl)-7-methoxy-6-[3-(4-morpholinyl)propoxy]-4-quinazolinamine]
BRSK2
  % Ctrl @ 10000 nM: 33 % Ctrl
CHEK2
  % Ctrl @ 10000 nM: 38 % Ctrl
EGFR (E746-A750del)
  % Ctrl @ 10000 nM: 0 % Ctrl
EGFR
  % Ctrl @ 10000 nM: 0 % Ctrl
EGFR (L858R)
  % Ctrl @ 10000 nM: 0 % Ctrl
FGR
  % Ctrl @ 10000 nM: 19 % Ctrl
FLT3 (D835H)
  % Ctrl @ 10000 nM: 8.1 % Ctrl
GSK3B
  % Ctrl @ 10000 nM: 100 % Ctrl
INSR
  % Ctrl @ 10000 nM: 90 % Ctrl
ITK
  % Ctrl @ 10000 nM: 82 % Ctrl
[1]
  % Ctrl @ 10000 nM: 15 % Ctrl
MARK2
  % Ctrl @ 10000 nM: 70 % Ctrl
MEK2
  % Ctrl @ 10000 nM: 44 % Ctrl
MELK
  % Ctrl @ 10000 nM: 57 % Ctrl
MRCKB
  % Ctrl @ 10000 nM: 71 % Ctrl
NDR2
  % Ctrl @ 10000 nM: 74 % Ctrl
NLK
  % Ctrl @ 10000 nM: 55 % Ctrl
PFTK1
  % Ctrl @ 10000 nM: 71 % Ctrl
PRKCE
  % Ctrl @ 10000 nM: 65 % Ctrl
PRKD1
  % Ctrl @ 10000 nM: 9.6 % Ctrl
RET
  % Ctrl @ 10000 nM: 65 % Ctrl
SNARK
  % Ctrl @ 10000 nM: 19 % Ctrl
p38-gamma
  % Ctrl @ 10000 nM: 97 % Ctrl
